# Test results from patent publication US4962109A, “Insecticidally and acaricidally active pyrimidine esters and intermediates therefor” (Imperial Chemical Industries PLC, priority 1985, dated 1990).
# Legend:
# Format in all cases: in vivo
# [1] = system: Tetranychus urticae (spider mites - adult); experiment: Contact test on spider mites - adult (TUa), French bean leaf, mortality; conditions: 72 h, 500 ppm, contact, 3 days, read-out: TUa grading of mortality
# Outline: (§1)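 Compound dissolved in acetone, diluted with water containing 0.01% by weight wetting agent to 500, 250 or 100 ppm. Pests held on host plant or foodstuff; pests and/or medium treated. Mortality scored one to three days later as grade A (80-100%), B (50-79%) or C (<50%) mortality or knockdown.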
# [2] = system: Tetranychus urticae (spider mites - ova); experiment: Contact test on spider mites - ova (TUe), French bean leaf, mortality; conditions: 144 h, 500 ppm, contact, 6 days, read-out: TUe grading of mortality
# Outline: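 Graded read-out: A 80-100%, B 50-79%, C below 50% mortality or knockdown, assessed usually 1-3 days post-treatment. Liquid preparations at 500, 250 or 100 ppm by weight, from acetone solution diluted in water with 0.01% wetting agent, applied to pests and/or their host plant or food medium.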
# Myzus persicae (aphids) = experiment: Contact test on aphids (MP), Chinese Cabbage leaf, mortality; conditions: 72 h, 500 ppm, contact, 3 days, read-out: MP grading of mortality
# Outline: as §1
# [3] = system: Nephotettix cincticeps (green leaf hopper - nymphs); experiment: Contact test on green leaf hopper nymphs (NC), Rice plant, mortality; conditions: 48 h, 500 ppm, contact, 2 days, read-out: NC grading of mortality
# Outline: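 Product dissolved in acetone, diluted in water with 0.01% wetting agent to 500, 250 or 100 ppm; nymphs and/or host rice plants treated. Mortality or knockdown assessed 1–3 days later, graded A (80-100%), B (50-79%), C (<50%).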
# [4] = system: Musca domestica (houseflies - adults); experiment: Knockdown test on houseflies - adults (MD/KD), Cotton wool/sugar; conditions: 500 ppm, 4 hours, read-out: MD/KD grading of knockdown
# Outline: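 Adult houseflies exposed to the compound at 500, 250 or 100 ppm in acetone/water with 0.01% wetting agent, on a cotton wool/sugar medium. Knockdown and mortality assessed, graded A (80-100%), B (50-79%) or C (<50%).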
# [5] = system: Musca domestica (houseflies - adults); experiment: Contact test on houseflies - adults (MD), Cotton wool/sugar, mortality; conditions: 72 h, 500 ppm, contact, 3 days, read-out: MD grading of mortality
# Outline: as §1
# [6] = system: Blattella germanica (cockroach nymphs); experiment: Contact test on cockroach nymphs (BG/C), Plastic pot, mortality; conditions: 48 h, 500 ppm, contact, 2 days, read-out: BG/C grading of mortality
# Outline: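 Cockroach nymphs and/or their medium were treated with aqueous preparations at 500, 250 or 100 ppm (acetone solution diluted in water with 0.01% Lissapol NX wetting agent). Mortality or knockdown was assessed typically 1–3 days later and graded A (80–100%), B (50–79%) or C (<50%).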
# [7] = system: Heliothis virescens (tobacco budworm - larvae); experiment: Residual test on tobacco budworm larvae (HV), Cotton leaf, mortality; conditions: 48 h, read-out: HV grading of mortality
# Outline: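 Product in acetone diluted with water containing 0.01% Lissapol NX, at 500, 250 or 100 ppm; pests and/or host medium (here cotton leaf) treated. Mortality scored one to three days later, graded A (80-100%), B (50-79%), C (<50%).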
# [8] = system: Spodoptera exigua (lesser army worm - larvae); experiment: Residual test on lesser army worm larvae (SP), Cotton leaf, mortality; conditions: 48 h, 500 ppm, residual, 2 days, read-out: SP grading of mortality
# Outline: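 Product dissolved in acetone and diluted in water with 0.01% wetting agent to 500, 250 or 100 ppm; larvae and/or cotton leaf host treated. Mortality or knockdown scored one to three days later and graded A (80-100%), B (50-79%) or C (<50%).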
# [9] = system: Diabrotica balteata (rootworm larvae); experiment: Residual test on rootworm larvae (DB), Filter paper/maize seed, mortality; conditions: 48 h, 500 ppm, residual, 2 days, read-out: DB grading of mortality
# Outline: as §1
SMILES,mortality at 500 ppm [1],mortality at 500 ppm [2],mortality at 500 ppm (Myzus persicae (aphids)),mortality at 500 ppm [3],pest or weed control at 500 ppm [4],mortality at 500 ppm [5],mortality at 500 ppm [6],mortality at 500 ppm [7],mortality at 500 ppm [8],mortality at 500 ppm [9]
CC(C)SCc1c(F)c(F)c(COC(=O)C(c2cnc(C(C)(C)C)nc2)C(C)(C)C)c(F)c1F (racemic) [Compound 174],80 to 100%,< 50%,80 to 100%,50 to 79%,< 50%,< 50%,< 50%,< 50%,< 50%,< 50%
"CC(C)(C)SCc1c(F)c(F)c(COC(=O)C(c2cnc(C(C)(C)C)nc2)C(C)(C)C)c(F)c1F (racemic) [Compound 175, 4-[(1,1-dimethylethyl)thio]methyl-2,3,5,6-tetrafluorobenzyl (RS)-2-[2-(1,1-dimethylethyl)pyrimidin-5-yl]-3,3dimethylbutanoate]",80 to 100%,< 50%,< 50%,< 50%,< 50%,< 50%,< 50%,< 50%,< 50%,< 50%
CCN(CC)Cc1c(F)c(F)c(COC(=O)C(c2cnc(C(C)(C)C)nc2)C(C)(C)C)c(F)c1F (racemic) [Compound 176],80 to 100%,< 50%,80 to 100%,80 to 100%,80 to 100%,80 to 100%,< 50%,80 to 100%,80 to 100%,< 50%
"CC(C)(C)c1ncc(C(C(=O)OCc2c(F)c(F)c(CN3CCCCC3)c(F)c2F)C(C)(C)C)cn1 (racemic) [Compound 177, 4-[(piperidin-1-yl)methyl]-2,3,5,6-tetrafluorobenzyl (RS)-2-(2-(1,1-dimethylethyl)pyrimidin-5-yl)-3,3-dimethylbutanoate]",80 to 100%,< 50%,80 to 100%,80 to 100%,80 to 100%,< 50%,< 50%,< 50%,80 to 100%,< 50%
"CC(C)=NOCc1c(F)c(F)c(COC(=O)C(c2cnc(C(C)(C)C)nc2)C(C)(C)C)c(F)c1F (racemic) [Compound 178, 4-(Prop-2-ylideneaminoxymethyl)-2,3,5,6-tetrafluorobenzyl (RS)-2-[2-(1,1-dimethylethyl)pyrimidin-5-yl]-3,3dimethylbutanoate]",80 to 100%,< 50%,80 to 100%,80 to 100%,< 50%,< 50%,< 50%,< 50%,< 50%,< 50%
"CC(C)(C)c1ncc(C(C(=O)OCc2c(F)c(F)c(CC3CC3)c(F)c2F)C(C)(C)C)cn1 (racemic) [Compound 179, 4-(cyclopropylmethyl)-2,3,5,6-tetrafluorobenzyl (RS)-2-[2-(1,1-dimethylethyl)pyrimidin-5-yl]-3,3-dimethylbutanoate]",80 to 100%,< 50%,80 to 100%,80 to 100%,< 50%,< 50%,< 50%,< 50%,< 50%,< 50%
"CC(C)(C)c1ncc(C(C(=O)OCc2cccc(Oc3ccc(Cl)cc3)c2)C(C)(C)C)cn1 (racemic) [Compound 180, 3-(4-chlorophenoxy)benzyl (RS)-2-[2-(1,1-dimethylethyl)pyrimidin-5-yl]-3,3-dimethylbutanoate]",80 to 100%,< 50%,80 to 100%,80 to 100%,80 to 100%,80 to 100%,< 50%,80 to 100%,80 to 100%,< 50%
"C[C@@H](OC(=O)[C@@H](c1cnc(C(C)(C)C)nc1)C(C)(C)C)c1cccc(Oc2ccc(Cl)cc2)n1 (racemic) [Compound 181, (RS)-1-[6-(4-chlorophenoxy)pyrid-2-yl]ethyl (RS)-2-[2-(1,1-dimethylethyl)pyrimidin-5-yl]-3,3-dimethylbutanoate]",80 to 100%,< 50%,80 to 100%,80 to 100%,80 to 100%,80 to 100%,< 50%,80 to 100%,80 to 100%,80 to 100%
"CSc1c(COC(=O)C(c2cnc(C(C)(C)C)nc2)C(C)(C)C)cc(F)c(C)c1F (racemic) [Compound 182, 4-methyl-2-thiomethyl-3,5-difluorobenzyl (RS)-2-[2-(1,1-dimethylethyl)pyrimidin-5-yl]-3,3dimethylbutanoate]",80 to 100%,< 50%,50 to 79%,80 to 100%,< 50%,< 50%,< 50%,< 50%,< 50%,< 50%
CSc1c(F)c(F)c(COC(=O)C(c2cnc(C(C)(C)C)nc2)C(C)(C)C)c(F)c1F (racemic) [Compound 183],80 to 100%,< 50%,< 50%,80 to 100%,80 to 100%,80 to 100%,< 50%,80 to 100%,80 to 100%,< 50%
"CCOc1c(F)c(COC)c(F)c(F)c1COC(=O)C(c1cnc(C(C)(C)C)nc1)C(C)(C)C (racemic) [Compound 185, 2,3,5-trifluoro-6-ethoxy-4-(methoxymethyl)benzyl (RS)-2-[2-(1,1-dimethylethyl)pyrimidin-5-yl]-3,3-dimethylbutanoate]",80 to 100%,< 50%,80 to 100%,80 to 100%,80 to 100%,50 to 79%,< 50%,80 to 100%,80 to 100%,< 50%
"CCOCc1c(F)c(F)c(COC(=O)C(c2cnc(C(C)(C)C)nc2)C(C)(C)C)c(F)c1F (racemic) [Compound 186, 2,3,5,6-tetrafluoro-4-(ethoxymethyl)benzyl (RS)-2-[2-(1,1-dimethylethyl)pyrimidin-5-yl]-3,3-dimethylbutanoate]",80 to 100%,< 50%,80 to 100%,80 to 100%,80 to 100%,< 50%,< 50%,80 to 100%,80 to 100%,< 50%
"CCOCc1c(F)c(F)c(COC(=O)C(c2cnc(C(C)(C)C)nc2)C(C)(C)C)c(OC)c1F (racemic) [Compound 187, 2,3,5-trifluoro-6-methoxy-4-(ethoxymethyl)benzyl (RS)-2-[2-(1,1-dimethylethyl)pyrimidin-5-yl]-3,3-dimethylbutanoate]",80 to 100%,< 50%,80 to 100%,80 to 100%,80 to 100%,50 to 79%,< 50%,50 to 79%,80 to 100%,< 50%
